# In patent US20120309717A1, “COMPOUNDS, METHODS AND PHARMACEUTICAL COMPOSITIONS FOR INHIBITING PARP” (EISAI INC., priority 2003, published 2012):
# Legend:
# [1] = target: T1, purified recombinant human PARP (Homo sapiens, UniProt P09874); assay: PARP enzyme assay (IC50); type: biochemical; conditions: approximate values
# T1 construct: purchased Trevigan (Gaithersburg, Md.)
# Procedure: A convenient method to determine IC50 of a PARP inhibitor compound is a PARP assay using purified recombinant human PARP from Trevigan (Gaithersburg, Md.), as follows: The PARP enzyme assay is set up on ice in a volume of 100 microliters consisting of 100 mM Tris-HCl (pH 8.0), 1 mM MgCl2, 28 mM KCl, 28 mM NaCl, 0.1 mg/ml of DNase I activated herring sperm DNA (Sigma, Mo.), 3.0 micromolar [3H]nicotinamide adenine dinucleotide (470 mci/mmole), 7 micrograms/ml PARP enzyme, and various concentrations of the compounds to be tested. The reaction is initiated by incubating the mixture at 25° C. After 15 minutes of incubation, the reaction is terminated by adding 500 microliters of ice cold 20% (w/v) trichloroacetic acid. The precipitate formed is transferred onto a glass fiber filter (Packard Unifilter-GF/B) and washed three times with ethanol. After the filter is dried, the radioactivity is determined by scintillation counting.
# P388D1 cells = assay: H2O2 induced cell death assay (cytoprotective effect, LDH release); type: cell-based, murine; conditions: Mus musculus, approximate values, concentration for 50% reduction of cell death, 2 mM H2O2, 4 h
# Procedure: We used a H2O2 induced cell death assay to determine the cytoprotective effect of PARP inhibitors. P388D1 cells (CCL-46, ATCC), derived from a murine macrophage-like tumor, were maintained in Dulbeco's Modified Eagle Medium (DMEM) with 10% horse serum and 2 mM L-glutamine. The cytotoxicity assay was set up in a 96-well plate. In each well, 190 ul cells were seeded at 2×10^6/ml density. To determine the EC50, the concentration of a compound required to achieve 50% reduction of cell death, a dose response experiment was conducted. PARP inhibitors were added to the media to a final concentration of 0.01, 0.03, 0.1, 0.3, 1, 3, 10, 30 uM. After 15 min incubation with a PARP inhibitor, 5 ul of freshly prepared H2O2 were added to the cells to a final concentration of 2 mM. Cells were returned to 37° C. incubator for 4 h. At the end of incubation, 25 ul of supernatant were sampled from the cell media to determine the level of lactate dehydrogenase (LDH) released from dead cells. The LDH activity was determined by monitoring the rate of decrease of NADH absorbency at 340 nm. The group without drug treatment was used to calculate total cell death due to H2O2 treatment. Each data point was an average of quadruplicate. The EC50 was determined from a dose response curve.
# [2] = system: ischemia and reperfusion of the heart; conditions: cited from earlier work
# colitis = conditions: rats; cited from earlier work
# [3] = system: human fibroblast cells lines (W138 or BJ cells); assay: proliferative capacity and lifespan of human fibroblast cells; type: cell-based
# Procedure: At the time of subdivision, the media is aspirated, and the cells rinsed with phosphate buffer saline (PBS) and then trypsinized. The cells are counted with a Coulter counter and plated at a density of 10^5 cells per cm^2 in 6-well tissue culture plates in DMEM/199 medium supplemented with 10% bovine calf serum and varying amounts (0.10 μM, and 1 mM: from a 100× stock solution in DMEM/M199 medium) of a PARP inhibitor. This process is repeated every 7 days until the cells appear to stop dividing. The untreated (control) cells reach senescence and stop dividing after about 40 days in culture. […] The cells treated with 1 mM 3-AB will still divide after 60 days in culture.
# endotoxic shock = conditions: cited from earlier work
# T1 sequence (P09874 whole entry): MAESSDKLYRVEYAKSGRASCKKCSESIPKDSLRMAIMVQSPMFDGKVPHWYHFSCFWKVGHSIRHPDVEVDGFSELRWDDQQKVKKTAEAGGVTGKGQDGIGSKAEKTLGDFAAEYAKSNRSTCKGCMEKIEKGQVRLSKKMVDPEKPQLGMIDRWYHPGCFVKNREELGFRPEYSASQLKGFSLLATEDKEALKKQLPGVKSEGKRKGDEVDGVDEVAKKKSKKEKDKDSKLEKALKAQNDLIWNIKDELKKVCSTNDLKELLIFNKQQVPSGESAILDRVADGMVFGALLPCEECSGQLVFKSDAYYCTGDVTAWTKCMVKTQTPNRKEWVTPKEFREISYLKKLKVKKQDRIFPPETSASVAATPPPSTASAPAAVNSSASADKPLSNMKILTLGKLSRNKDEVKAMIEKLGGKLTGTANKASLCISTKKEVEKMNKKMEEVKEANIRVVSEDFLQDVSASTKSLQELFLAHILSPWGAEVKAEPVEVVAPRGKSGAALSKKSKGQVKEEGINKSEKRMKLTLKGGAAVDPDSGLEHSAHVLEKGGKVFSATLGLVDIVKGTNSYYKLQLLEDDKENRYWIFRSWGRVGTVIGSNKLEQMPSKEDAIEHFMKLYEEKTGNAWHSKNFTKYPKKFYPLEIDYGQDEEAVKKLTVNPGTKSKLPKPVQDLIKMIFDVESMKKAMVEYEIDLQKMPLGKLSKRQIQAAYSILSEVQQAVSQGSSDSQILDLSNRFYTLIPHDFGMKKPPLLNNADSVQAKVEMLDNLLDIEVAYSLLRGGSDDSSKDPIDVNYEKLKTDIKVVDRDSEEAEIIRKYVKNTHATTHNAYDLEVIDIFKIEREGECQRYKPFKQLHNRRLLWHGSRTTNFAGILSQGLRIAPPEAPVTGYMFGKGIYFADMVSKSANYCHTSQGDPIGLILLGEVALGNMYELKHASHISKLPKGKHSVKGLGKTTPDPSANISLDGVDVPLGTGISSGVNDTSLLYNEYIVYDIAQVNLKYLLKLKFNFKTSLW
Compound,IC50 ([1]; Table I),IC50 ([1]; Table II),EC50 (P388D1 cells; Table II),also measured
NNC(=O)C1=CNc2c(Cl)ccc3c(=O)[nH]nc1c23,0.749 µM,–,–,–
O=c1[nH]nc2c3c(cccc13)NC=N2,0.039 µM,–,–,EC50 (P388D1 cells; Table I): 0.35 µM
NNC(=O)C1=CNc2cccc3c(=O)[nH]nc1c23,0.014 µM,–,–,EC50 (P388D1 cells; Table I): 0.1 µM
NNC(=O)C1=Cc2n[nH]c(=O)c3ccc(NN)c(c23)N1,2.79 µM,–,–,–
NNC(=O)C1=Cc2n[nH]c(=O)c3cccc(c23)N1,0.026 µM,–,–,EC50 (P388D1 cells; Table I): 0.51 µM
O=C(O)C1=Cc2n[nH]c(=O)c3cccc(c23)N1,0.16 µM,–,–,EC50 (P388D1 cells; Table I): 1.7 µM
NC1=Nc2n[nH]c(=O)c3cccc(c23)N1,0.091 µM,–,–,EC50 (P388D1 cells; Table I): 0.64 µM
NNC(=O)C1=Nc2n[nH]c(=O)c3cccc(c23)N1,0.021 µM,–,–,EC50 (P388D1 cells; Table I): 0.24 µM
CC1=Cc2n[nH]c(=O)c3ccc(Cl)c(c23)N1,0.12 µM,–,–,–
O=c1[nH]nc2c3c(cccc13)NC(CO)=N2,0.026 µM,–,–,EC50 (P388D1 cells; Table I): 0.36 µM
O=c1[nH]nc2c3c(cccc13)NC(CNCCCc1ccccc1)=N2,0.087 µM,–,–,EC50 (P388D1 cells; Table I): 0.01 µM
CN(C)CC1=Nc2n[nH]c(=O)c3cccc(c23)N1,0.019 µM,–,–,EC50 (P388D1 cells; Table I): 0.13 µM
O=c1[nH]nc2c3c(cccc13)NC(CN1CCCCC1)=N2,0.019 µM,–,–,EC50 (P388D1 cells; Table I): 0.12 µM
O=c1[nH]nc2c3c(cccc13)NC(CN1CCCC1)=N2,0.018 µM,–,–,–
O=c1[nH]nc2c3c(cccc13)N=C(CN1CCOCC1)N2,0.018 µM,–,–,–
CC(=O)OC(C(=O)O)C(OC(C)=O)C(=O)NCc1ccc2c(c1)-c1n[nH]c(=O)c3cccc(c13)O2 (centres unmarked),–,0.035 µM,2.08 µM,–
NCc1ccc2c(c1)-c1n[nH]c(=O)c3cccc(c13)O2,–,0.019 µM,2.08 µM,–
O=c1[nH]nc2c3c(cccc13)Oc1ccc(CN3CCOCC3)cc1-2,–,0.067 µM,0.3 µM,–
O=C(NCc1ccc2c(c1)-c1n[nH]c(=O)c3cccc(c13)O2)C1CCCN1 (centres unmarked),–,0.03 µM,0.08 µM,–
N=C(N)NCc1ccc2c(c1)-c1n[nH]c(=O)c3cccc(c13)O2,–,0.035 µM,1 µM,–
CCN1CCN(Cc2ccc3c(c2)-c2n[nH]c(=O)c4cccc(c24)O3)CC1,–,0.06 µM,0.12 µM,–
O=c1[nH]nc2c3c(cccc13)Oc1ccc(CN3CCN(CCO)CC3)cc1-2,–,0.101 µM,0.08 µM,–
O=c1[nH]nc2c3c(cccc13)Oc1ccc(CN3CCN(CCOCCO)CC3)cc1-2,–,0.128 µM,0.075 µM,–
NOCc1ccc2c(c1)-c1n[nH]c(=O)c3cccc(c13)O2,–,0.165 µM,0.47 µM,–
O=c1[nH]nc2c3c(cccc13)Oc1ccc(CO)cc1-2,–,0.092 µM,0.41 µM,–

Compound,IC50 ([1]; Table I),IC50 ([1]; Table II),EC50 (P388D1 cells; Table II),also measured
O=C(CCP(=O)(OCc1ccccc1)OCc1ccccc1)OCc1ccc2c(c1)-c1n[nH]c(=O)c3cccc(c13)O2,–,0.413 µM,–,–
O=C(CCl)OCc1ccc2c(c1)-c1n[nH]c(=O)c3cccc(c13)O2,–,0.177 µM,–,–
O=C(O)c1ccc2c(c1)-c1n[nH]c(=O)c3cccc(c13)O2,–,0.167 µM,–,–
CCOP(=O)(NCc1ccc2c(c1)-c1n[nH]c(=O)c3cccc(c13)O2)OCC,–,0.275 µM,–,–
O=c1[nH]nc2c3c(cccc13)Oc1ccc(COP(=O)(O)O)cc1-2,–,0.034 µM,0.75 µM,–
CN(C)c1ccc(/N=N/c2ccc(S(=O)(=O)NCc3ccc4c(c3)-c3n[nH]c(=O)c5cccc(c35)O4)cc2)cc1,–,1.3 µM,–,–
C=COC(=O)c1ccc2c(c1)-c1n[nH]c(=O)c3cccc(c13)O2,–,0.089 µM,–,–
O=c1[nH]nc2c3c(cccc13)Oc1ccc(CN3CCNCC3)cc1-2,–,0.048 µM,0.27 µM,–
"Oc1cccc2c(O)nccc12 [1,5-dihydroxyisoquinoline]",–,–,–,reduction in infarct size ([2]; 1 mg/kg): 38-48%
NC(=O)c1cccc(N)c1 [3-amino-benzamide],–,–,–,"inflammatory response, distal colon (colitis): reduced the inflammatory response; reduction in infarct size in the heart ([2]; single injection 10 mg/kg, one minute before occlusion or before reperfusion): 32-42%; effect on lifespan of the cells ([3]; 10 μM): little or no effect; effect on lifespan of the cells ([3]; 100 μM): lengthen the lifespan of the cells; effect on lifespan and proliferative capacity of the cells ([3]; 1 mM): dramatically increases the lifespan and proliferative capacity; time in culture at which cells still divide ([3]; 1 mM, untreated cells stop after about 40 days): > 60 days"
"CN(C)CCN(C)Cc1ccc2c(c1)-c1n[nH]c(=O)c3cccc(c13)O2 [10-{[(2-Dimethylamino-ethyl)-methyl-amino]-methyl}-2H-7-oxa-1,2-diaza-benzo[de]anthracen-3-one]",–,0.1 µM,0.17 µM,–
"O=c1[nH]nc2c3c(cccc13)Oc1ccc(CN(CCO)CCO)cc1-2 [Compound 47, 10-{[Bis-(2-hydroxy-ethyl)-amino]-methyl}-2H-7-oxa-1,2-diaza-benzo[de]anthracen-3-one]",–,–,–,melting point: 222 to 225 °C
"O=c1[nH]nc2c3c(cccc13)Oc1ccc(CN3CCC(N4CCCC4)CC3)cc1-2 [Compound 48, 10-(4-Pyrrolidin-1-yl-piperidin-1-ylmethyl)-2H-7-oxa-1,2-diaza-benzo[de]anthracen-3-one]",–,–,–,melting point: 258 to 264 °C
"O=C(O)C(O)C(O)C(=O)NCc1ccc2c(c1)-c1n[nH]c(=O)c3cccc(c13)O2 (centres unmarked) [Compound 52, 2,3-Dihydroxy-N-(3-oxo-2,3-dihydro-7-oxa-1,2-diaza-benzo[de]anthracen-10-ylmethyl)-succinamic acid]",–,–,–,melting point: 181 to 185 °C
"CN(C)c1ccc(N=Nc2ccc(S(=O)(=O)NCc3ccc4c(c3)-c3n[nH]c(=O)c5cccc(c35)O4)cc2)cc1 [Compound 55, 4-(4-Dimethylamino-phenylazo)-N-(3-oxo-2,3-dihydro-7-oxa-1,2-diaza-benzo[de]anthracen-10-ylmethyl)-benzenesulfonamide]",–,–,–,melting point: > 300 °C
"CN(C)CC(=O)OCc1ccc2c(c1)-c1n[nH]c(=O)c3cccc(c13)O2 [Compound 59, Dimethylamino-acetic acid 3-oxo-2,3-dihydro-7-oxa-1,2-diaza-benzo[de]anthracen-10-ylmethyl ester]",–,–,–,melting point: 227 to 230 °C
"O=c1[nH]nc2c3c(cccc13)Oc1ccc(COP(=O)(OCc3ccccc3)OCc3ccccc3)cc1-2 [Compound 60, Phosphoric acid dibenzyl ester 3-oxo-2,3-dihydro-7-oxa-1,2-diaza-benzo[de]anthracen-10-ylmethyl ester]",–,–,–,melting point: 223 to 225 °C
O=C(O)C(O)C(O)C(=O)NCc1ccc2c(c1)-c1n[nH]c(=O)c3cccc(c13)O2 (centres unmarked) [drawing 41],–,0.021 µM,5.27 µM,–
CN1CCN(Cc2ccc3c(c2)-c2n[nH]c(=O)c4cccc(c24)O3)CC1 [drawing 46],–,0.074 µM,0.13 µM,–
O=c1[nH]nc2c3c(cccc13)Oc1ccc(CN(CCO)CCO)cc1-2 [drawing 52],–,0.038 µM,–,–
CN(C)CC(=O)OCc1ccc2c(c1)-c1n[nH]c(=O)c3cccc(c13)O2 [drawing 54],–,0.125 µM,–,–
O=c1[nH]nc2c3c(cccc13)Oc1ccc(COP(=O)(OCc3ccccc3)OCc3ccccc3)cc1-2 [drawing 55],–,0.086 µM,0.52 µM,–
O=c1[nH]nc2c3c(cccc13)Oc1ccc(CN3CCC(N4CCCC4)CC3)cc1-2 [drawing 63],–,–,0.3 µM,–
NC(=O)c1cccnc1 [nicotinamide],–,–,–,"protection against vascular failure (endotoxic shock): protects against delayed, NO-mediated vascular failure"
